Measured values: BigSolDB 2.1

COc1c(O)cc2c(c1O)[C@@H]1O[C@H](CO)[C@@H](O)[C@H](O)[C@H]1OC2=O
solubility (mole fraction)
Conditions	298.15 K	303.15 K	308.15 K	313.15 K	318.15 K
in DMSO	0.0168	0.0182	0.0198	0.0212	0.0229
in water	7.5e-05	9.88e-05	0.000123	0.000151	0.000185
